Experimental data as given in US20230263782A1, “ORAL FORMULATIONS AND USES THEREOF” (INVENTISBIO CO., LTD., priority 2020, published 2023).
In brackets after ≈: the same amount, converted by molar mass. Where a name gives a salt, the structure may show the parent alone. Read-outs that look alike come from different tables or passages of the source.

Experiments:
[1] = Solid stability test at 40° C./75% RH for 8 days (HPLC, XRPD); format: physicochemical; conditions: for Solid stability: 40° C./75% RH for 8 days, HPLC and XRPD; for Purity at 8 days / Purity at 0 day: HPLC; for Purity at 8 days: after 40° C./75% RH for 8 days; for Purity at 0 day: start of 40° C./75% RH storage
Procedure: HPLC ANALYSIS: a representative HPLC method is shown below, which can be used, for example, to analyze the purity, solubility, and stability of the salts herein.
For stability test: About 20 mg of Compound FA, L-lysine salt and meglumine salt (Form I) were weighed into vials, and put at the condition of 40° C./75% RH for 8 days. At 0 and 8 days, the solid sample was dissolved using acetonitrile/water (1/1) to make a solution with the concentration of 0.2 mg/mL. Sample solutions were analyzed by HPLC and solid samples were examined by XRPD.

ER+ breast cancer cells = conditions: as discussed in WO2017/136688; cited from earlier work
[2] = Solubility test in pH 1.2 or pH 6.8 buffer (saturated solutions, HPLC; remaining solids by XRPD); format: physicochemical; conditions: for Stability in buffer solution (HPLC): pH 1.2 buffer solution; for solubility at 30 min / Solubility at 24 h: room temperature; for XRPD patterns at 24 h: remaining solid
Procedure: For solubility test: About 20 mg of Compound FA, L-lysine salt and meglumine salt (Form I) were weighed into vials, added 3 mL of pH1.2 or pH 6.8 buffer to make saturated solutions. All suspensions were kept shaking with 200 rpm at room temperature for up to 24 hours. […] At 24 hours, remaining solids were collected and determined by XRPD.

[3] = compared with fulvestrant, GDC-0810 and AZD9496; WO2017/136688; cited from earlier work
[4] = Dynamic moisture sorption analysis (DVS), XRPD before and after; format: physicochemical; conditions: FIG. 5A
Procedure: Dynamic moisture sorption analysis (DVS): DVS was determined using IGAsorp (Hiden Isochema, UK). The sample was tested at a targeted RH (relative humidity) of 10 to 90% full cycle in step mode. The analysis was performed in 10% RH increments.

[5] = Solubility in water (statement); format: physicochemical
[6] = Physical treatment (grinding) of Form I; format: physicochemical; conditions: grinded for 2 min and 5 min
Procedure: Physical treatment of Form I: Form I of meglumine salt was grinded for 2 min and 5 min. After grinding, the crystallinity declined, but the crystal form was still Form I.

[7] = Solid stability test of Form I at 25° C./92.5% RH for 10 days (XRPD); format: physicochemical
Procedure: Solid stability test of Form I at 92.5% RH for 10 days: About 20 mg of meglumine salt Form I was put into the condition of 25° C./92.5% RH for 10 days. At 10 days, the sample was analyzed by XRPD.

[8] = Meglumine salt form interconversion study (slurry in IPA or water, XRPD); format: physicochemical; conditions: Water
Procedure: Interconversion study: Interconversion studies were carried out by mixing the same amount of different form solids in IPA or water, respectively. Suspensions were kept stirring at room temperature and 60° C. for several days, during which suspensions were filtrated and analyzed by XRPD.

ER = molecular target: T1, ER (Homo sapiens, UniProt P03372); conditions: clinical samples, intramuscular injection monthly; cited from earlier work
T1 sequence (P03372 1-595): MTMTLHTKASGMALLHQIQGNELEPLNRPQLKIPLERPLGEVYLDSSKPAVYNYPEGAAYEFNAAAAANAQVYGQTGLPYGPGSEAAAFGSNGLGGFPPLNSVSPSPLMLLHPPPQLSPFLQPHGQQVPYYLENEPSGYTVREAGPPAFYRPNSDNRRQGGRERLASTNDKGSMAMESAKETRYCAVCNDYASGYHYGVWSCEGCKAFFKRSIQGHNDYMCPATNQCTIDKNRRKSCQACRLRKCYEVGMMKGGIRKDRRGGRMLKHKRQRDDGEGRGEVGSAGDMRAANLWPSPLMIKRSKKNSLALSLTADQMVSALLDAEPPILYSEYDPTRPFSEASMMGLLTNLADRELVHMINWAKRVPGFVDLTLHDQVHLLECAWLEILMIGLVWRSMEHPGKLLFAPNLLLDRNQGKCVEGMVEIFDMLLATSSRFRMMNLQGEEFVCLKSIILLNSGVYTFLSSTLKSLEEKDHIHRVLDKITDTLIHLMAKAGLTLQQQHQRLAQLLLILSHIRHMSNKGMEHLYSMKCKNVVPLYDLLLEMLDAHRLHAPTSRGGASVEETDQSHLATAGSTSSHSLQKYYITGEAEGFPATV

[9] = pH 1.2 buffer, calculated with the sum of impurities and major peak area

Solid stability [1] | Purity at 8 days [1] [Area %] | Purity at 0 day [1] [Area %] | Stability in buffer solution (HPLC) [2] | Solubility at 24 h [2, 9] [µg/mL] | Solubility at 24 h ([2]; pH 6.8 buffer) [µg/mL] | XRPD patterns at 24 h ([2]; pH 1.2 buffer) | XRPD patterns at 24 h ([2]; pH 6.8 buffer) | Structure (SMILES) | further results
physically and chemically stable | 96.31 | 98.02 | unstable | 267 (≈ 562 µM) | 3 (≈ 6.31 µM) | Low crystallinity | Low crystallinity | C[C@@H]1Cc2c([nH]c3ccccc23)[C@@H](c2c(Cl)cc(/C=C/C(=O)O)cc2Cl)N1CC(C)(C)F [Compound FA, (E)-3-(3,5-dichloro-4-((1R,3R)-2-(2-fluoro-2-methylpropyl)-3-methyl-2,3,4,9-tetrahydro-1H-pyrido[3,4-b]indol-1-yl)phenyl)acrylic acid] | growth of ER+ breast cancer cells (ER+ breast cancer cells): inhibited the growth of ER+ breast cancer cells; solubility at 30 min ([2]; pH 1.2 buffer, pH 1.2, simulated gastric fluid, thermodynamic from solid, pH 1.2 buffer, calculated with the sum of impurities and major peak area, read-out: Solubility at 30 min): 571 µg/mL (≈ 1200 µM); solubility at 30 min ([2]; pH 6.8 buffer): 14 µg/mL (≈ 29.4 µM); human hepatocyte clearance [3]: better human hepatocyte clearance; Solid form before and after DVS studies (XRPD) [4]: did not change; Solubility in water [5]: practically insoluble in water
physically and chemically stable | 99.66 | 99.68 | unstable | 1612 | 17 | No change | Low crystallinity | C[C@@H]1Cc2c([nH]c3ccccc23)[C@@H](c2c(Cl)cc(/C=C/C(=O)O)cc2Cl)N1CC(C)(C)F [Meglumine salt, meglumine (E)-3-(3,5-dichloro-4-((1R,3R)-2-(2-fluoro-2-methylpropyl)-3-methyl-2,3,4,9-tetrahydro-1H-pyrido[3,4-b]indol-1-yl)phenyl acrylate] | Crystal form after grinding [6]: still Form I; solubility at 30 min [2, 9]: 296 µg/mL; solubility at 30 min ([2]; pH 6.8 buffer, pH 6.8, aqueous buffer, thermodynamic from solid, pH 6.8 buffer, read-out: Solubility at 30 min): 20 µg/mL; Crystal form after storage (XRPD) [7]: remained unchanged; Final crystal form ([8]; 25° C.): Dihydrate; Final crystal form ([8]; 60° C.): Form I
 |  |  |  |  |  |  |  | C[C@]12CC[C@@H]3c4ccc(O)cc4C[C@@H](CCCCCCCCC[S+]([O-])CCCC(F)(F)C(F)(F)F)[C@H]3[C@@H]1CC[C@@H]2O (some centres unmarked) [fulvestrant] | ER degradation (ER): ~50%
